The assay relates to activated sludge. The assay can be described thus: Activated sludge SBR reactor, biological nitrogen removal with added AHLs signal molecule. The note with it: remaining steps as Example 1 (10° C.).

On to `CCCCCCCCCCCC(=O)N[C@H]1CCOC1=O` [C12-HSL, N-dodecanoyl-L-homoserine lactone], for which the ammonia-nitrogen removal efficiency amounted to 90.79% (10 μg/L after addition) and 80.95% (100 μg/L after addition).

On to `CCCCCCCC(=O)N[C@H]1CCOC1=O` [C8-HSL, N-octanoyl-L-homoserine lactone], for which the ammonia-nitrogen removal efficiency was 88.37% (10 μg/L after addition) and 94.54% (100 μg/L after addition).

On to `CCCCCC(=O)N[C@H]1CCOC1=O` [C6-HSL, N-hexanoyl-L-homoserine lactone], for which the ammonia-nitrogen removal efficiency reads like this: (10 μg/L after addition) 82.34%; (100 μg/L after addition) 84.29%.

The record behind these values is patent publication US20240262727A1, “METHOD FOR IMPROVING BIOLOGICAL NITROGEN REMOVAL EFFECT OF LOW-TEMPERATURE SEWAGE” (Sichuan University, priority 2023, published 2024).
